Reference: ChEMBL document CHEMBL1201862, “PubChem BioAssay data set” (2004)
The source made the active and inactive calls.

How the values were obtained:
CHO = assay: cytotoxicity in TLR9-MyD88 CHO cells, dose response, cytotoxicity control for TLR9-MyD88 binding inhibitor project, cell-based, luminescence (AID 588339); assay type: functional, hamster; details: Cricetulus griseus;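 also: CHO cells stably coexpressing TLR9 and MyD88 fusions from primary screen; compound exposure lasted 48 hours before viability readout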
HeLa = assay: HeLa cell cytotoxicity, dose response, cytotoxicity control, 24 h, cherry-picked samples (AID 504726); assay type: functional, cell-based; details: Homo sapiens;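 also: potency for cytotoxicity as loss of luminescence signal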
Troponin, cardiac muscle = Troponin, cardiac muscle (Homo sapiens, UniProt P19429+P45379+P63316); assay: Fluorescence-based biochemical high throughput dose response assay for activators of the calcium sensitivity of cardiac Regulated Thin Filaments (RTF). [Related pubchem assays (depositor defined):AID493008, AID493018, AID504382, AID504383]; assay type: protein-complex assay
Beta Lactamase = Beta Lactamase (Pseudomonas aeruginosa, UniProt Q932Y6); assay: beta-lactamase reporter inhibitor potency, dose response, artefact control for TLR9-MyD88 binding inhibitor project, BLA reporter cells, FRET fluorescence (AID 588341); assay type: cell-based;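 also: cell based assay in CHO-K1 cells stably expressing beta-lactamase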
Sequence of Beta Lactamase (Q932Y6 whole entry): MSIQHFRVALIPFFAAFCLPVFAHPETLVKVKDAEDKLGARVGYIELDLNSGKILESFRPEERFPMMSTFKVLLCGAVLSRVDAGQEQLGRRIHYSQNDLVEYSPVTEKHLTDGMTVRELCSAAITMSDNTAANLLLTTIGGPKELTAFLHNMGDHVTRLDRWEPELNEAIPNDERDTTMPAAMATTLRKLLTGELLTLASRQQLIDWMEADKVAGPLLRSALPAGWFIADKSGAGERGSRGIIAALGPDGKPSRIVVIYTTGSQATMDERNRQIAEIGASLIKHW

[1] = target: T1, Sentrin-specific protease 7 (Homo sapiens, UniProt Q9BQF6); assay: SENP7 protease inhibitors, SAR follow-up, biochemical, luminescence (AID 504497); assay type: functional
T1 sequence (Q9BQF6 whole entry): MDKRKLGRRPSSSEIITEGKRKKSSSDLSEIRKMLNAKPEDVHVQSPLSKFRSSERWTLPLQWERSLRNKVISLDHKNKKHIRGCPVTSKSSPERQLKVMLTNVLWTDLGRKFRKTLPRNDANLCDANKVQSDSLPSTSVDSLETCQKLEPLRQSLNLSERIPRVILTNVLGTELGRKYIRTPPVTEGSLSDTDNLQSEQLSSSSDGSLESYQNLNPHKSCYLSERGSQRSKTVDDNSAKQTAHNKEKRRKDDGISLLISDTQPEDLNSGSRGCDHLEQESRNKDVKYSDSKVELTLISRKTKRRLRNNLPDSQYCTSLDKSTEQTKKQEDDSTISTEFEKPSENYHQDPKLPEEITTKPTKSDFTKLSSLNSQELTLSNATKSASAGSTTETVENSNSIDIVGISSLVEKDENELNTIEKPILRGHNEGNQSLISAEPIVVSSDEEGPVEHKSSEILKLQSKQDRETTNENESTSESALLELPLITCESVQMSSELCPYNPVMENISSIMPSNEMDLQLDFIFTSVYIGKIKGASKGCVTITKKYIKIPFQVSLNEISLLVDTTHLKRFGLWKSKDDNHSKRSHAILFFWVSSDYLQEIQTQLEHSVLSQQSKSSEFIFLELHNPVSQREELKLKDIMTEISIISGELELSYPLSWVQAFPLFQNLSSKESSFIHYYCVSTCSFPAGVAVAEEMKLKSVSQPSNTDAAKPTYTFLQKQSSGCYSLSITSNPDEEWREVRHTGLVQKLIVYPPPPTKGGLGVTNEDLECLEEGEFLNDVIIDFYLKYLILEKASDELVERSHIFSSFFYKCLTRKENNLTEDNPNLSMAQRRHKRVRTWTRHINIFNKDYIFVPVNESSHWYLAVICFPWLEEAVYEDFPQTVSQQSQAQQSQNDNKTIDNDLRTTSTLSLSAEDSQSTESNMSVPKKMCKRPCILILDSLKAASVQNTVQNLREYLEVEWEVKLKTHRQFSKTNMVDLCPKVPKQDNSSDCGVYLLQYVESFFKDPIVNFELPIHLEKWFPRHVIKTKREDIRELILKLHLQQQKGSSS

[2] = target: T2, Sentrin-specific protease 8 (Homo sapiens, UniProt Q96LD8); assay: SENP8 protease inhibitors, SAR follow-up, biochemical, luminescence (AID 504501); assay type: functional
T2 sequence (Q96LD8 whole entry): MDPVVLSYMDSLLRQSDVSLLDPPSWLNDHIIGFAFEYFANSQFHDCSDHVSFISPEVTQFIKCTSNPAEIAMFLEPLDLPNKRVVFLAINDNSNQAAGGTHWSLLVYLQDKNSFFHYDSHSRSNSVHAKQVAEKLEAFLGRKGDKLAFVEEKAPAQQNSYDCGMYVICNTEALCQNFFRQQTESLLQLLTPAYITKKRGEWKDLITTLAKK

Caspase-3 = target: T3, Caspase-3 (Homo sapiens, UniProt P42574); assay: SAR Analysis of small molecule inhibitors of Sentrin-specific proteases (SENPs) using a Caspase-3 Selectivity assay. [Related pubchem assays (depositor defined):AID2540, AID2599, AID434973, AID489001]; assay type: functional
T3 sequence (P42574 whole entry): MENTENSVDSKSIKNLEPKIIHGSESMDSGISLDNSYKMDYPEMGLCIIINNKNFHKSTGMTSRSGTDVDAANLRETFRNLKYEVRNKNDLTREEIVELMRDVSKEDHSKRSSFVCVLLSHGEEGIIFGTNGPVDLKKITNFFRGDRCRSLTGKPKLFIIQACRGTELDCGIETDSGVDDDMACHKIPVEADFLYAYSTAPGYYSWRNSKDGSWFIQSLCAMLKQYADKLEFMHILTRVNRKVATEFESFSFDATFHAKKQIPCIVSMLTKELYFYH

[3] = target: T4, Sentrin-specific protease 6 (Homo sapiens, UniProt Q9GZR1); assay: SAR Analysis of small molecule inhibitors of Sentrin-specific protease 6 (SENP6) using a Luminescent assay. [Related pubchem assays (depositor defined):AID2582, AID2599]; assay type: functional
T4 sequence (Q9GZR1 whole entry): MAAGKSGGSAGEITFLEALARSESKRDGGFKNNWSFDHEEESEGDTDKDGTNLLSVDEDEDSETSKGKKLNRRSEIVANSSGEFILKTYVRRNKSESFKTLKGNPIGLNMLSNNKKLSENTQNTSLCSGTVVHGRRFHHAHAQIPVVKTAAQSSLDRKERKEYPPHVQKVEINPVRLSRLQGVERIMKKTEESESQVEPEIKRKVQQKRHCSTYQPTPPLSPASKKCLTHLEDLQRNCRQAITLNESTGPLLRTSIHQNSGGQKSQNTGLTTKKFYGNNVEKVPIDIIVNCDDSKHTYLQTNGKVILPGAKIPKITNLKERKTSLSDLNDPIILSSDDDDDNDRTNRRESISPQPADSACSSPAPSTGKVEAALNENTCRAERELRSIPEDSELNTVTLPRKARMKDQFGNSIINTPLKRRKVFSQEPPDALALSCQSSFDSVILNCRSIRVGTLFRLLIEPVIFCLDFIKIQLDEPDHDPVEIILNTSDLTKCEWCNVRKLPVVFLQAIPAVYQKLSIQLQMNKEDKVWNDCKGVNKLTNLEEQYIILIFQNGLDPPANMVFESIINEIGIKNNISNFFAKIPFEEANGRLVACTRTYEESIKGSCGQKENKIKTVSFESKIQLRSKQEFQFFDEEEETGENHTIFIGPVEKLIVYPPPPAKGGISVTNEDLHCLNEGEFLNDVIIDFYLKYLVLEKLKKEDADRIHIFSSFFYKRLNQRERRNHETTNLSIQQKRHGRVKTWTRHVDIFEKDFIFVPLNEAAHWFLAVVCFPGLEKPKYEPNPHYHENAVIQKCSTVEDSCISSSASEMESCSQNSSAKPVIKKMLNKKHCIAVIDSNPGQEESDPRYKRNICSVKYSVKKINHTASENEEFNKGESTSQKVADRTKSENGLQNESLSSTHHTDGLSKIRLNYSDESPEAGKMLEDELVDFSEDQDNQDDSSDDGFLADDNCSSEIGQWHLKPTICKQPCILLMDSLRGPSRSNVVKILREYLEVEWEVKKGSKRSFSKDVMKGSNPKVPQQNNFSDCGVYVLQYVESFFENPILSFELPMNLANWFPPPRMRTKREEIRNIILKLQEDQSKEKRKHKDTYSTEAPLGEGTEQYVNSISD

Streptokinase A = target: T5, Streptokinase A (Streptococcus pyogenes serotype M1, UniProt P10520); assay: S. pyogenes streptokinase expression inhibitors, potency, dose response, plasminogen activation absorbance, OD405 (AID 1914); assay type: functional, Streptococcus pyogenes M1 GAS;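 also: secreted streptokinase activity via plasminogen activation per viability signal from cell pellet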
T5 sequence (P10520 whole entry): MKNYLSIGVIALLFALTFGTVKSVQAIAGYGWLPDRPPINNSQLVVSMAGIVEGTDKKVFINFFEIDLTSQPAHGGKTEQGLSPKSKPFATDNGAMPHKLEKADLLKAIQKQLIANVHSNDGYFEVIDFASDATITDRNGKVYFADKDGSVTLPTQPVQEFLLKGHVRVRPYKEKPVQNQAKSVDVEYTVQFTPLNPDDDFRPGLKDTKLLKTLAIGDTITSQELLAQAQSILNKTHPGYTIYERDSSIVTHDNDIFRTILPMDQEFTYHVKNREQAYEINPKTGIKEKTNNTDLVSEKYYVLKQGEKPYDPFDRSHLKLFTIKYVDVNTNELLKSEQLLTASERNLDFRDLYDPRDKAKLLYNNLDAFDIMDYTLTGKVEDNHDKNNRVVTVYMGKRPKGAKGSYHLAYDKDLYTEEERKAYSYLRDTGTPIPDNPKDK

[4] = NIH-3T3 fibroblast cytotoxicity, dose response, cytotoxicity control, cell-based, fluorescence, Alamar Blue, secondary assay (AID 2327); assay type: functional;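 also: NIH-3T3 mouse fibroblasts cultured with fluconazole at 8 µg/mL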
[5] = target: Serine/threonine-protein phosphatase (Candida dubliniensis (strain CD36 / CBS 7987 / NCPF 3949 / NRRLY-17841) (Yeast), UniProt B9W6M3); assay: calcineurin pathway inhibitors in yeast reporter, dose response, S. cerevisiae, CDRE-lacZ, luminescence, secondary (AID 2388); assay type: functional, cell-based;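 also: yeast reporter cells carrying a calcineurin-responsive lacZ construct stimulated with calcium chloride; luminescent beta-galactosidase reporter signal in whole cells rather than isolated phosphatase activity; potency for inhibition where a drop in reporter signal means calcineurin blockade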
Sequence of Serine/threonine-protein phosphatase (B9W6M3 whole entry): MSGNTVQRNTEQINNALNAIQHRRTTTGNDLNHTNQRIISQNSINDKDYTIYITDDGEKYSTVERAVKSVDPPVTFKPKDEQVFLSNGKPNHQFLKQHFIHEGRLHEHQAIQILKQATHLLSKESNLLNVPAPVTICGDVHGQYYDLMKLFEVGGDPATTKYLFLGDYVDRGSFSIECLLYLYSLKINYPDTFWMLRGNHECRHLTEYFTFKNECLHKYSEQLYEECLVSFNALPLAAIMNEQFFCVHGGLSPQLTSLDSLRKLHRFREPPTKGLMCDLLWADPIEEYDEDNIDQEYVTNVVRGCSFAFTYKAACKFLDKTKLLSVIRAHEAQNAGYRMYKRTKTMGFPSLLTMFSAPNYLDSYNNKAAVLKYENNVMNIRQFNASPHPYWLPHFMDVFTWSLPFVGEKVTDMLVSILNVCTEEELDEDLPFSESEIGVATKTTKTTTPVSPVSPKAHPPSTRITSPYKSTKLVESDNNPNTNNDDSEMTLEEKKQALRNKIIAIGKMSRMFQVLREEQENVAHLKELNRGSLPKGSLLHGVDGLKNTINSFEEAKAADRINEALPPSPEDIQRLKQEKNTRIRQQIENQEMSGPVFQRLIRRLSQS

cells = assay type: functional, cell-based; details: HEK-CNG
[6] = target: T6, COUP transcription factor 2 (Homo sapiens, UniProt P24468); assay: Luminescence-based cell-based high throughput dose response assay to identify inhibitors of COUP-TFII (NR2F2).; assay type: functional;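 also: HEK293 cells transiently cotransfected with COUP-TFII expression vector and reporter; luciferase reporter luminescence driven by COUP-TFII from the pX2-168 reporter plasmid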
T6 sequence (P24468 whole entry): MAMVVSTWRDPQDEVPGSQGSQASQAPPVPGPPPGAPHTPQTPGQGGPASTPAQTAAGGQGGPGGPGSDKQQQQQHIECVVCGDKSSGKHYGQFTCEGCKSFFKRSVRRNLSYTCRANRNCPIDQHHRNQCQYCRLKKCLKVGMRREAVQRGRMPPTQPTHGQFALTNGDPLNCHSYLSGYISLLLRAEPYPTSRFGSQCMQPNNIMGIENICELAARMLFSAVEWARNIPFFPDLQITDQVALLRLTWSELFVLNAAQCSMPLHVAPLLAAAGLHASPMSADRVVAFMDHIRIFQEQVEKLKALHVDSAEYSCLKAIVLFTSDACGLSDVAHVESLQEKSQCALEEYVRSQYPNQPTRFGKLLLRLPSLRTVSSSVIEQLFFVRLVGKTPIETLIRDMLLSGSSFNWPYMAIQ

[7] = system: Streptococcus sp. 'group A'; assay: growth inhibition of control SK(-) GAS strain, dose response, counter-screen for streptokinase expression inhibitor project, luminescence, kanamycin, BacTiterGlo, confirmation (AID 1900); assay type: functional, organism-based
[8] = C. albicans growth with fluconazole, confirmation, fluorescence, retest (AID 2467); assay type: functional, cell-based
[9] = inhibitors of firefly luciferase expression or activity, dose response, H4 neuroglioma cells, luminescence (AID 1990); assay type: functional, cell-based
[10] = target: ATP-dependent molecular chaperone HSP82 (Candida albicans (strain WO-1) (Yeast), UniProt C4YTQ8); assay: loss of DOC-induced GRE-beta-galactosidase reporter signal, dose response, Hsp90 inhibitor project, S. cerevisiae, luminescence (AID 2400); assay type: functional, cell-based;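 also: beta-galactosidase luminescence from glucocorticoid response element reporter as proxy for Hsp90 function; inhibitor potency where signal loss means Hsp90 inhibition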
Sequence of ATP-dependent molecular chaperone HSP82 (C4YTQ8 whole entry): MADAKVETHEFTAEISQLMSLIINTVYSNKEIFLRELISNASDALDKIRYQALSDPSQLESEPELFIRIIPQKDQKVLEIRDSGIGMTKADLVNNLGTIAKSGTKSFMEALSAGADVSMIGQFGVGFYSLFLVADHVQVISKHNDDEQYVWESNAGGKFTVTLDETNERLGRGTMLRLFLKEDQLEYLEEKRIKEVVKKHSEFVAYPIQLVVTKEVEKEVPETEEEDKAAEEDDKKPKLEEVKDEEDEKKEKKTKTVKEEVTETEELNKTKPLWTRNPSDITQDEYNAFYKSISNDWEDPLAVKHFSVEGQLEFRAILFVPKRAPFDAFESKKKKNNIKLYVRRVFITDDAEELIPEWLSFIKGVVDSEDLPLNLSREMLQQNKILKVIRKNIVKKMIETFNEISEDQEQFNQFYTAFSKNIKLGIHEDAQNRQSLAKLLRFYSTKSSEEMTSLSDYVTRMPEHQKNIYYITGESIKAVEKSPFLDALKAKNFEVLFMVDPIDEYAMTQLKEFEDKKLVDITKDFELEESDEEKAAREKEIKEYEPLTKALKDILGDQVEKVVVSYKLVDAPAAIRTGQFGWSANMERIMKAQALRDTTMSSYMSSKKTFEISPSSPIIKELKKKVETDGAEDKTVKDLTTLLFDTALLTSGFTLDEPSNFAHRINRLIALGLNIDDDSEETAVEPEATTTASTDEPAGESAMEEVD

[11] = control 3'UTR Renilla luciferase suppression, dose response, counter-screen for Shn3 inhibitor project, cell-based, Clone20-Shn3RL, cherry-picked (AID 624133); assay type: functional
Galanin receptor type 3 = target: T7, Galanin receptor type 3 (Homo sapiens, UniProt O60755); assay: Fluorescence-based cell-based primary high throughput dose response assay to identify antagonists of the Galanin Receptor 3 (GalR3).; assay type: functional
T7 sequence (O60755 whole entry): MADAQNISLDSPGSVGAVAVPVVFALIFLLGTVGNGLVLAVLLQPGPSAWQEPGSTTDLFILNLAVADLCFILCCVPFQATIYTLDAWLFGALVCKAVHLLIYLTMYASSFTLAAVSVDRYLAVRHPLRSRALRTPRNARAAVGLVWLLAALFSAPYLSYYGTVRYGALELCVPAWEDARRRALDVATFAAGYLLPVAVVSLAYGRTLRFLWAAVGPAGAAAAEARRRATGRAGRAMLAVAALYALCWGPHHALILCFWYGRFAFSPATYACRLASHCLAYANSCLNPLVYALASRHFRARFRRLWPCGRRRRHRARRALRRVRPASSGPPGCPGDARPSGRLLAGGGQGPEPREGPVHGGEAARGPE

[12] = inhibitors of SNCA 5'UTR-driven reporter translation, confirmation, H4 neuroglioma cells, luminescence (AID 1988); assay type: functional, cell-based
Streptococcus = assay: Group A Streptococcus viability loss, dose response, counter-screen for streptokinase expression inhibitor project, luminescence, BacTiterGlo (AID 1915); assay type: functional, organism-based;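 also: potency for reduction of bacterial viability or growth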
[13] = Luminescence Cell-Based Dose Response HTS to Identify Inhibitors of 5'UTR Stem-Loop Driven Prion Protein mRNA Translation in H4 Neuroglioblastoma Cells. [Related pubchem assays: 1827 (Project Summary), 1813 (Primary HTS)]; assay type: functional
DNA topoisomerase = DNA topoisomerase (Yersinia pestis, UniProt A0A2S9PM60); assay: Y. pestis Topo-I inhibitors, cleavage product readout, dose response, biochemical, cherry-pick (AID 588525)
Sequence of DNA topoisomerase (A0A2S9PM60 whole entry): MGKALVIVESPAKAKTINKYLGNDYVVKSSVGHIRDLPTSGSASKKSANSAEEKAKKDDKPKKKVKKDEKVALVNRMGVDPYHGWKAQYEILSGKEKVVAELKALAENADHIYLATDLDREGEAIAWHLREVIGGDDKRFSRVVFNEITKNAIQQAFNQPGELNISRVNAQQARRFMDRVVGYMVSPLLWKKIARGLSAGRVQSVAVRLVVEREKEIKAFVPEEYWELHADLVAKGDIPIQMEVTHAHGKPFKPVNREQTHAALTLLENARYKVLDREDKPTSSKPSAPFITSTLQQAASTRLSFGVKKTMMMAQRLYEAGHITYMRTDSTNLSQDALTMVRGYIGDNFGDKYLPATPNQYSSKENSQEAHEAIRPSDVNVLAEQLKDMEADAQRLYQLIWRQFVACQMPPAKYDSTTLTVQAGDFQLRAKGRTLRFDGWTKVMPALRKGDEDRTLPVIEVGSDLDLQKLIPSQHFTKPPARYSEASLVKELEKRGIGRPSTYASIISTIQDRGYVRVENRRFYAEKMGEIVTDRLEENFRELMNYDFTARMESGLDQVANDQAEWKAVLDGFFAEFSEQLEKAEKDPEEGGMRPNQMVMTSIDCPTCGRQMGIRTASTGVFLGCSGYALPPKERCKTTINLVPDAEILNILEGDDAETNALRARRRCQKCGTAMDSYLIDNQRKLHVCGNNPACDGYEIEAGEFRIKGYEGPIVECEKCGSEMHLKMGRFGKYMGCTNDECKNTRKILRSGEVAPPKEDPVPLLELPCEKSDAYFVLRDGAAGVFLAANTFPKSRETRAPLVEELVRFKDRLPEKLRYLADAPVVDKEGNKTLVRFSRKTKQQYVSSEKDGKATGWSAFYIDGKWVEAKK

O=C1c2cccc3c(N4CCCCC4)ccc(c23)C(=O)N1c1cccc(O)c1
active: AC50 (HeLa) 81.5 µM | EC50 (Troponin, cardiac muscle) 1.83 µM | IC50 (Beta Lactamase) 5.24 µM
inactive: IC50 (CHO) > 49.7 µM

Cc1ccc(Cl)c2sc(NC(=O)c3ccc(S(=O)(=O)N4CC(C)CC(C)C4)cc3)nc12 (stereo not drawn)
inactive: IC50 [1] > 99 µM | IC50 [2] > 99 µM | IC50 (Caspase-3) > 99 µM | IC50 [3] > 99 µM

CC(C)(C)c1ccc(CSc2cnn(C(C)(C)C)c(=O)c2Cl)cc1 [PYRIDABEN]
active: EC50 (Streptokinase A) 20.8 µM | EC50 [4] 103 µM | IC50 [6] 0.0619 µM | EC50 [7] 4.13 µM | EC50 [8] 0.211 µM | AC50 [11] < 0.26 µM | IC50 (Galanin receptor type 3) 0.00657 µM | EC50 (Streptococcus) 123 µM
> 120 µM (not active): EC50 [9] | EC50 [12] | EC50 [13]
inactive: EC50 [5] > 180 µM | EC50 (cells) > 29.9 µM | EC50 [10] > 160 µM

CC(C)CN(C(=O)COC(=O)c1c2c(nc3ccccc13)CCC2)c1c(N)n(Cc2ccccc2)c(=O)[nH]c1=O
inactive: AC50 (DNA topoisomerase) > 38 µM
